Assay results reported in US6933315B2, “Derivatives of isoindigo, indigo and indirubin and methods of treating cancer” (priority 2001, dated 2005).
Where two headings read alike, the source gives them in different places.

Assays:
LNCaP = assay: Growth inhibition by MTT, LNCaP prostate cancer cells; type: cell-based, Human; details: MTT, 72 h exposure (Table 3), read-out: IC50 LNCaP
Procedure: Growth inhibitory effects of NATURA and other agents on human cancer cells were determined by standard MTT (3-(4,5-dimethylthiazol-2-yl)-2,5-diphenyltetrazolium bromide Test) as described previously. […] The cells in the plates were then exposed to series of dilution of indicated agent. After 72 h of incubation, 100 μl of the medium was removed from each of the wells and 50 μl of a 1 mg/ml solution of 3-(4,5-dimethylthiazol-2-yl)-2,5-diphenyltetrazolium bromide (MTT) was added to each well and the cells were incubated for additional 4 h. 200 μl of solution of 0.04 N HCl-isopropanol was added to each well to dissolve the black fromazan participates, and absorbance at 540 nm was measured on a 96-Well.
(§1) The cells in the plates were then exposed to series of dilution of indicated agent. After 72 h of incubation, 100 μl of the medium was removed from each of the wells and 50 μl of a 1 mg/ml solution of 3-(4,5-dimethylthiazol-2-yl)-2,5-diphenyltetrazolium bromide (MTT) was added to each well and the cells were incubated for additional 4 h. 200 μl of solution of 0.04 N HCl-isopropanol was added to each well to dissolve the black fromazan participates, and absorbance at 540 nm was measured on a 96-Well Microplate Reader. Each experiment was repeated at least three times.

PC-3 = assay: Growth inhibition by MTT, PC-3 prostate cancer cells; type: cell-based, Human; details: read-out: IC50 PC-3
Procedure: (§2) Growth inhibitory effects of NATURA and other agents on human cancer cells were determined by standard MTT (3-(4,5-dimethylthiazol-2-yl)-2,5-diphenyltetrazolium bromide Test) as described previously. Briefly, cancer cells grown exponentially were aliquoted into 96-well plates at a density of 5000 cells/200 μl per well in RPMI 1640 medium containing 10% FBS overnight. The cells in the plates were then exposed to series of dilution of indicated agent. After 72 h of incubation, 100 μl of the medium was removed from each of the wells and 50 μl of a 1 mg/ml solution of 3-(4,5-dimethylthiazol-2-yl)-2,5-diphenyltetrazolium bromide (MTT) was added to each well and the cells were incubated for additional 4 h. 200 μl of solution of 0.04 N HCl-isopropanol was added to each well to dissolve the black fromazan participates, and absorbance at 540 nm was measured on a 96-Well.

[1] = test system: polychromatic erythrocytes from bone marrow; assay: Induction of micronuclei in rodent animals; type: in vivo; details: mice, 48 mg/kg intraperitoneally daily for 2 days, positive control
Procedure: Cyclophosphamine at dosage of 48 mg/kg was given intraperitoneally daily for 2 days as positive control. Six hrs after the latest administration, the animals were sacrificed, and polychromatic erythrocytes from bone marrow were stained with Giemsa to count micronuclei.

SKBR-3 = assay: Growth inhibition by MTT, SKBR-3 breast cancer cells; type: cell-based, Human; details: read-out: IC50 SKBR-3
Procedure: as §2

MCF-7 = assay: Growth inhibition by MTT, MCF-7 breast cancer cells; type: cell-based, Human
Procedure: as §2
as §1, with “FIGS. 3-5 show the anticancer affects of NATURA in MCF-7 breast cancer cells, DLD-1 colon cancer cells, and LNCaP hormone-dependent prostate cancer cells. The cancer cells grown exponentially were aliquoted into 96-well plates at a density of 5000 cells/200 μl per well in RPMI 1640 medium containing 10% fetal bovine serum (FBS) overnight. The” for “The”

DLD-1 = assay: Growth inhibition by MTT, DLD-1 colon cancer cells; type: cell-based, Human
Procedure: as §2
as §1, with “FIGS. 3-5 show the anticancer affects of NATURA in MCF-7 breast cancer cells, DLD-1 colon cancer cells, and LNCaP hormone-dependent prostate cancer cells. The cancer cells grown exponentially were aliquoted into 96-well plates at a density of 5000 cells/200 μl per well in RPMI 1640 medium containing 10% fetal bovine serum (FBS) overnight. The” for “The”

DU145 = assay: Growth inhibition by MTT, DU145 prostate cancer cells; type: cell-based, Human; details: read-out: IC50 DU145
Procedure: as §2

LOVO = assay: Growth inhibition by MTT, LOVO colon cancer cells; type: cell-based, Human; details: read-out: IC50 LOVO
Procedure: as §2

Walker 256 = assay: Anticancer activity against Walker 256 sarcoma; details: Walker 256, rat, oral; Indirubin 100 × 9, Meisoindigo 106 × 9 mg/kgxd
Procedure: Anticancer activity against Walker 256: Wistar rats with body weights between 50 to 55 grams, were randomly divided into several groups, ten of each, respectively. Approximately 2×10^6 of the Walker sarcoma cells were transplanted into a Wistar rat. Twenty-four hours after the transplantation, equal molar dosage (0.384 mM/kg) of NATURA or other sugar derivatives were given orally for 10 days. The animals in the control group were given 0.1 ml saline (drug vehicle, negative control) for the same periods of time as treated group. Twenty-four hours after the last administration, the animals were sacrificed and tumors were removed and weighed.
(§3) Briefly, C57 mice, body weight between 18 to 22 grams, and rat, body weight between 50 to 55 grams, were randomly divided into several groups, ten of each, respectively. Approximately 2×10^6 of Lewis cancer cells or Walker sarcoma cells were transplanted into mice or rat. […] The animals in the control group were given 0.1 ml saline (drug vehicle, negative control) for the same periods of time as treated group. The animals at end of the treatment were sacrificed and tumors were removed and weighed.
In order to assess the anticancer activities of NATURA and other sugar derivatives, Wistard rats transplanted with W256 were given the same molar of the tested compounds (0.384 mM/kg) for the same period of time (10 days).

Lewis Lung Cancer = assay: Anticancer activity in Lewis lung carcinoma animal model; type: in vivo, C57 mice; details: mice, oral, Indirubin 100 × 9, Meisoindigo 106 × 9 mg/kgxd
Procedure: as §3

human cancer cell lines = assay: Growth inhibition by MTT, all tested human cancer cell lines; type: cell-based; details: range over breast, colon, prostate lines, three day exposure, read-out: IC50, growth inhibitory effects on all tested human cancer cell lines
Procedure: as §2

[2] = test system: extracellular signal-regulated protein kinase 2 (ERK2); assay: ERK2 activity from treated LNCaP cells; type: cell-based, Human; details: different concentrations, 15 min
Procedure: Assay for cyclin dependent kinase activity: HUVEC and LNCaP cells were cultured in EMB (endothelial cell basal medium) and RPMI 1640 containing 10% FBS, respectively. The cells grown exponentially were exposed to indicated concentrations of meisoindigo or NATURA for 24 hr. The cells were harvested, washed, and total proteins extracted as described previously. One hundred μg of the proteins were immuno-precipitated using antibodies against cdk2, cdk4/6, PKC, ERK2 or cyclin D1 overnight at 4° C. in the presence of a cocktail of protease inhibitors. […] The phosphorylated histone H1 (represent cdk activity) was measured by scintillation counting or by SDS-polyacrylaimde gel electrophoresis. The direct inhibitory effects of Meisoindigo and NATURA were also measured by reaction of immuno-purified specific enzyme from untreated cells directly with the Meisoindigo or NATURA. […]
LNCaP cells at exponential growth phase were exposed to different concentrations of NATURA (panel A & B) for 24 hrs, or to PD98059 (panel C) for 15 min. […] Upper panels are the imagines of x-ray films from SDS-PAGE, and lower panels represent the densities of each band from the films determined by an Imagine Densitometer from the same films (expressed as the percent of control).

[3] = biological target: T1, immuno-purified cdk2 from LNCaP cells (Homo sapiens, UniProt P24941); assay: Direct inhibition of immuno-purified cdk2 activity in vitro; type: biochemical; details: 50 μM, immuno-purified cdk2, positive control
T1 construct: Two hundred mg of total protein extracts were immuno-precipitated with cdk2 antibody overnight at 4° C
Procedure: Assay for cyclin dependent kinase activity: HUVEC and LNCaP cells were cultured in EMB (endothelial cell basal medium) and RPMI 1640 containing 10% FBS, respectively. The cells grown exponentially were exposed to indicated concentrations of meisoindigo or NATURA for 24 hr. The cells were harvested, washed, and total proteins extracted as described previously. One hundred μg of the proteins were immuno-precipitated using antibodies against cdk2, cdk4/6, PKC, ERK2 or cyclin D1 overnight at 4° C. in the presence of a cocktail of protease inhibitors. The immuno-precipitates were washed 4 times with protein extraction buffer and once with kinase assay buffer, and reacted with 75 μg/ml histone H1 in the presence of [γ-^32P]-ATP (2.5 μCi/10 μM). The phosphorylated histone H1 (represent cdk activity) was measured by scintillation counting or by SDS-polyacrylaimde gel electrophoresis. The direct inhibitory effects of Meisoindigo and NATURA were also measured by reaction of immuno-purified specific enzyme from untreated cells directly with the Meisoindigo or NATURA.
When immuno-purified cdk2 from LNCaP cells was reacted with histone H1 in the presence of different concentrations of NATURA-β and γ-[^32P]-ATP (2.5 μCi/[…]), the enzyme activity was decreased in a concentration-dependent manner.
Two hundred mg of total protein extracts were immuno-precipitated with cdk2 antibody overnight at 4° C. After 4 washes with PBSTDS, and once with kinase assay buffer, the immuno-purified enzyme was then reacted for 10 min with 10 mg of histone H1 in the presence of different concentrations of NATURA or 50 mM of genistein (as a positive control) and γ-[^32P]-ATP (2.5 mCi/10 mM). The phosphorylated histone H1 (reflecting cdk2 activity) was detected either by SDS-PAGE (upper panel), or radioactive scintillation counting (lower panel, after eliminating free γ-[^32P]-ATP).

[4] = Homo sapiens, PC-3, MTT, 72 h exposure
[5] = Homo sapiens, DLD-1, 72 h exposure

**Q.** Which results are given for CC(O)(CS(=O)(=O)c1ccc(F)cc1)C(=O)Nc1ccc(C#N)c(C(F)(F)F)c1 (centres unmarked) [Casodex]?
**A.** IC50 (LNCaP; Homo sapiens, LNCaP): 57.4 ± 7.21 µM; IC50 (PC-3; [4]): 120 ± 17.3 µM

**Q.** How did the micronuclei [1] turn out when O=P1(N(CCCl)CCCl)NCCCO1 (centres unmarked) [Cyclophosphamine] was run?
**A.** 41.16 per thousand

**Q.** With COc1cccc2c1C(=O)c1c(O)c3c(c(O)c1C2=O)C[C@@](O)(C(C)=O)C[C@@H]3O[C@H]1C[C@H](N)[C@H](O)[C@H](C)O1 [Daunomycin] as the compound, how does the IC50 (SKBR-3; Homo sapiens, SK-BR-3, 72 h) read?
**A.** 0.061 ± 0.0051 µM

**Q.** What about the IC50 (MCF-7; Homo sapiens, MCF7, 72 h exposure) of the same compound?
**A.** 0.054 ± 0.011 µM

**Q.** What about the IC50 (DLD-1; [5]) of the same compound?
**A.** 0.094 ± 0.013 µM

**Q.** What about the IC50 (DU145; Homo sapiens, DU-145, 72 h) of the same compound?
**A.** 0.107 ± 0.004 µM

**Q.** What about the IC50 (PC-3; Homo sapiens, PC-3, 72 h) of the same compound?
**A.** 0.24 ± 0.018 µM

**Q.** What about the IC50 (LOVO; Homo sapiens, LoVo, 72 h) of the same compound?
**A.** 0.035 ± 0.004 µM

**Q.** Which “Inhibition (%)” value (Walker 256) does the source give for O=C1Nc2ccccc2/C1=C1/Nc2ccccc2C1=O [Indirubin] here?
**A.** 59.4 ± 2.9%

**Q.** What about the “Tumor Size X ± SD” value (Walker 256) of the same compound?
**A.** 3.94 ± 0.71

**Q.** What about the “Inhibition (%)” value (Lewis Lung Cancer) of the same compound?
**A.** 26.3 ± 2.8%

**Q.** What about the “Tumor Size X ± SD” value (Lewis Lung Cancer) of the same compound?
**A.** 2.58 ± 0.21

**Q.** Which results are given for CS(=O)(=O)Nc1ccc([N+](=O)[O-])cc1OC1CCCCC1 [NS389]?
**A.** IC50 (SKBR-3; MTT, 72 h exposure): > 200 µM; IC50 (MCF-7; 72 h exposure): > 200 µM; IC50 (DLD-1; 72 h exposure): > 200 µM; IC50 (DU145; MTT, 72 h exposure): > 200 µM; IC50 (LNCaP): 65.5 ± 9.46 µM; IC50 (PC-3; MTT, 72 h exposure): > 200 µM; IC50 (human cancer cell lines): > 200 µM; IC50 (LOVO; MTT, 72 h exposure): > 200 µM

**Q.** How did the “effect on ERK2” value [2] turn out when COc1cccc(-c2cc(=O)c3ccccc3o2)c1N [PD98059] was run?
**A.** concentration-dependent inhibitory effects

**Q.** How did the IC50 (DLD-1; [5]) turn out when CC(=O)O[C@H]1C(=O)[C@@]2(C)[C@H]([C@H](OC(=O)c3ccccc3)[C@]3(O)C[C@H](OC(=O)[C@H](O)[C@@H](NC(=O)c4ccccc4)c4ccccc4)C(C)=C1C3(C)C)[C@]1(OC(C)=O)CO[C@@H]1C[C@@H]2O [Paclitaxel] was run?
**A.** 0.00315 ± 0.00037 µM

**Q.** And the IC50 (LOVO; Homo sapiens, LoVo, MTT, 72 h exposure)?
**A.** 0.00364 ± 0.00051 µM

**Q.** What does the source list for CC(C)(C)NC(=O)[C@H]1CC[C@H]2[C@@H]3CC[C@H]4NC(=O)C=C[C@]4(C)[C@H]3CC[C@]12C [Proscar]?
**A.** IC50 (LNCaP; Homo sapiens, LNCaP): 40.6 ± 7.12 µM; IC50 (PC-3; [4]): 134 ± 12.9 µM

**Q.** Which IC50 (SKBR-3; MTT, 72 h exposure) does the source give for CC1=C(/C=C/C(C)=C/C=C/C(C)=C/C(=O)O)C(C)(C)CCC1 [Retinoid Acid] here?
**A.** > 50 µM

**Q.** What about the IC50 (MCF-7; 72 h exposure) of the same compound?
**A.** 21.4 ± 3.78 µM

**Q.** And the IC50 (DLD-1; 72 h exposure)?
**A.** 49.7 ± 5.72 µM

**Q.** And the IC50 (DU145; MTT, 72 h exposure)?
**A.** > 50 µM

**Q.** What about the IC50 (LNCaP) of the same compound?
**A.** 16 ± 3.19 µM

**Q.** And the IC50 (PC-3; MTT, 72 h exposure)?
**A.** > 50 µM

**Q.** What about the IC50 (human cancer cell lines) of the same compound?
**A.** ≥ 21.4 µM

**Q.** And the IC50 (LOVO; MTT, 72 h exposure)?
**A.** 75.3 ± 12.5 µM

**Q.** With O=c1c(-c2ccc(O)cc2)coc2cc(O)cc(O)c12 [genistein] as the compound, how does the inhibition at 50 µM [3] read?
**A.** ~56%
